Where “and” joins values, the source holds several entries; their conditions need not be identical. Equal entries are not always repeated.
How the values were obtained:
[1] = tested on: relapsed/refractory acute lymphoblastic leukemia; assay: Response (modified IWG criteria) and overall survival, Phase II study NCI-9775; format: in vivo, human
Description: Evaluable patients for response include all patients who had measurable disease present at baseline, began treatment, and had their disease re‐evaluated. Response was assessed by bone marrow aspirates and biopsies performed every 2 months (mandated at the end of Cycle 2, Cycle 4, and Cycle 6). The best responses were captured as overall responses at any time point. Response was evaluated based on modified response criteria by the International Working Group (IWG) recommendations for acute myeloid leukemia (Table S1).[33]
This was a phase II trial designed using a Simon design with an interim analysis to evaluate efficacy. Efficacy (success) was defined as a complete response (CR or CR incomplete (i)). All patients meeting the eligibility criteria who signed a consent form and began treatment were deemed evaluable for toxicity. […] Thus, this regimen was to be considered ineffective if the success rate was 10% or less (null hypothesis), while the smallest success rate that would warrant subsequent studies was 30% (i.e., alternate research hypothesis). With a maximum of 26 evaluable patients, this trial had 85% power to detect a CR/CRi rate of 30% or greater (vs. 10% or less) with a one‐sided Type I error of 0.09. This trial was designed with a futility analysis after enrollment of 11 patients; if there were one or fewer successes observed in these first 11 patients, the regimen would be considered ineffective, and the study terminated. If two or more successes were observed, the enrollment would continue to a total of 26 evaluable patients. In the final analysis, if five or more of these 26 evaluable patients had achieved a CR or CRi, this would be considered sufficient evidence of promising activity in this patient population. Otherwise, if four or fewer CR/CRi events were observed, this regimen would not warrant further evaluation in this population.
The primary endpoint was the proportion of successes, which was estimated by the number of successes divided by the total number of evaluable patients. Secondary endpoints of duration of response (CR or CRi) and overall survival (OS) were evaluated using Kaplan–Meier techniques; the frequency of proceeding to allogeneic stem cell transplant after achieving response and adverse events (AEs), as evaluated using reported the NCI Common Terminology Criteria for Adverse Events (CTCAE) version 4.0, were presented using descriptive statistics.

[2] = Pearson correlation of sapanisertib clearance with toxicity and group variables; format: in vivo, human; settings: p > 0.05
Description: Blood samples were obtained on Days 1, 2, and 8 of Cycle 1. […] plasma concentrations were measured using liquid chromatography‐mass spectroscopy. Plasma concentration‐time data were analyzed by standard methods using WinNonlin. Pearson's correlation coefficient (r) was used to assess correlation of group variables. Statistical significance was defined as p < 0.05. Additional details are contained in the Supplementary Method: Data S1.
Statistical significance was defined as P<0.05.

[3] = tested on: phospho-4EBP1 (direct mTORC1 substrate) in ALL sample; assay: Immunoblotting of pretreatment ALL specimen treated ex vivo 48 h with sapanisertib; format: cell-based, human; settings: 5 μM Q‐VD‐OPh
From the text: FIGURE 2 Effect of MLN0128 concentrations on mTOR‐associated phosphorylation in vitro, ex vivo, and in the context of the present trial. […] (C) Samples harvested from the indicated patients prior to treatment (lanes 1, 4, 6, 8, and 10), on Day 8 prior to therapy (lanes 2, 5, 7, 9, and 11), or at the time of removal from study after 6 weeks (lane 3) were subjected to SDS‐PAGE and blotting for the indicated antigens. Jurkat cells (lane 12) were included in the blot because they were known to be positive for all analytes.[29] The housekeeping protein nucleolin (NCL) served as a loading control.
Cells were isolated from bone marrow or blood samples using Histopaque-1077 (Millipore-Sigma, St. Louis, MO) step gradients. […] Cells for ex vivo drug exposure were resuspended at a concentration of 1 x 10^6 cells/ml in RPMI 1640 medium containing 10% (v/v) heat-inactivated fetal bovine serum, 50 U/ml penicillin G, 50 µg/ml streptomycin, and 1 mM glutamine. […]

[4] = tested on: patients with advanced solid malignancies; settings: original drug formulation, daily dosing; cited from earlier work
[5] = tested on: human ALL lines and clinical ALL samples; parameters: method as in PMID 26917778; settings: cited from earlier work
[6] = tested on: human ALL cell line xenografts; parameters: method as in PMID 26917778; settings: cited from earlier work

CC(C)n1nc(-c2ccc3oc(N)nc3c2)c2c(N)ncnc21 [sapanisertib]
CR or CRi ([1]; 3 mg daily 21 of 28 days): No patient | Median survival ([1]; 51.0‐NA 95% CI): 62 days | best response stable disease, patients ([1]; in vivo): 2 patients and 3 patients | best response stable disease, percent of patients ([1]; in vivo): 12.5% and 19% | disease progression, patients ([1]; in vivo): 6 patients | disease progression, percent of patients ([1]; in vivo): 38% | not evaluable because of early discontinuation, patients ([1]; in vivo): 7 patients | not evaluable because of early discontinuation, percent ([1]; in vivo): 44% | correlation between systemic clearance and sex, age, or total body weight [2]: no significant correlation | concentration diminishing phosphorylation of 4EBP1 without change in total 4EBP1 [3]: 62.5 to 200 nM | maximum tolerated dose (MTD) [4]: 6 mg/day | cytotoxic effects compared with rapamycin [5]: greater cytotoxic effects than rapamycin | growth of human ALL cell line xenografts [6]: inhibited growth
